# Like-named read-outs stand apart in the source and are kept apart here. Marks after values point to notes of the source that are not given here.
# Tests used:
# [1] = target: T1, hA2AAR (Homo sapiens, UniProt P29274); settings: inhibition of radioligand binding at 10 μM; values from the literature; cited from earlier work
# T1 construct: expressed in transfected cells
# [2] = target: mouse A2A adenosine receptor (Mus musculus, UniProt Q60613); experiment: Competition radioligand binding, mouse A2A AR, HEK293 membranes (Table 1)
# mouse A2A adenosine receptor, sequence (Q60613 whole entry): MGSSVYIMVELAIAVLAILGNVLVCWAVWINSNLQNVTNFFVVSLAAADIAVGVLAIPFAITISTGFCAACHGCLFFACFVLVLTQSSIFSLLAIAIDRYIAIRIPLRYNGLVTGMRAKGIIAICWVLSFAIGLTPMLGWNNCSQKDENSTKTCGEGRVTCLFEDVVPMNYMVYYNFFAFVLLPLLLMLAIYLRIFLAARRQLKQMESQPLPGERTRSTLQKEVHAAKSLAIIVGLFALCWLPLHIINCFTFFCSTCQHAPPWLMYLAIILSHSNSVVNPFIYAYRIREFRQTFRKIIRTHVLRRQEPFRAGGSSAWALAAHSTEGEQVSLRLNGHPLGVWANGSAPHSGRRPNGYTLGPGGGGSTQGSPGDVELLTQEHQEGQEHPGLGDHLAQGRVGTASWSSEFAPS
# [3] = target: T2, human A2A adenosine receptor (Homo sapiens, UniProt P29274); experiment: Radioligand binding, human A2A AR (Table 1)
# T2 sequence (P29274 whole entry): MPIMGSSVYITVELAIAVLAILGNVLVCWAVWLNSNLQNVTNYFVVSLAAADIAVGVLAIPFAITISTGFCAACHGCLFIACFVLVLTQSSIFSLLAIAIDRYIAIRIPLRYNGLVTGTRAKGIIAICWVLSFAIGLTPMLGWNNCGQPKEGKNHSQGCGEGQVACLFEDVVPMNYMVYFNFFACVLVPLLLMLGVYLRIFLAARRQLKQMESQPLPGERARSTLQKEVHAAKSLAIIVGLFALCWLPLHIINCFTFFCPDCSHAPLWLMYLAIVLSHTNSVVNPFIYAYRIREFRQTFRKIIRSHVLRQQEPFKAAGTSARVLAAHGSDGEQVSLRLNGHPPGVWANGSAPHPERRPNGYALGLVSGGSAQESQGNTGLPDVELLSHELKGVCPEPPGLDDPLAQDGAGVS
# [4] = target: T3, mA2AAR (Mus musculus, UniProt Q60613); settings: values from Melman et al.; concentration not defined (mark ^1); cited from earlier work
# T3 construct: expressed in transfected cells
# T3 sequence (Q60613 whole entry): as the sequence (Q60613 whole entry) above
# [5] = target: T2, human A2A adenosine receptor; parameters: expressed in transfected cells; settings: species H (human); percent inhibition at 10 μM; data from Tchilibon et al.; cited from earlier work
# [6] = target: T4, human A3AR (Homo sapiens, UniProt P0DMS8); experiment: Inhibition of forskolin-stimulated cyclic AMP production in AR transfected CHO cells (Table 1); format: cell-based; settings: CHO; read-out: % Efficacy at the human A3 AR
# T4 construct: expressed in transfected cells; host or cells: CHO
# T4 sequence (P0DMS8 1-318): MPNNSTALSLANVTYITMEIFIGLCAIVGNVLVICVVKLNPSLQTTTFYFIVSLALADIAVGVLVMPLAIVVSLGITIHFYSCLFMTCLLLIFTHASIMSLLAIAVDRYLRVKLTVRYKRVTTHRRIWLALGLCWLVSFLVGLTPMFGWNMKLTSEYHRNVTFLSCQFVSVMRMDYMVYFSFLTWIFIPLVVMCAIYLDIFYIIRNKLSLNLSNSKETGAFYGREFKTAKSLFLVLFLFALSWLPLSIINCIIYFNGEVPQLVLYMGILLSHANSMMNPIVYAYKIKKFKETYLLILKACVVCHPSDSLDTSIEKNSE
# [7] = target: T5, human A1 adenosine receptor (Homo sapiens, UniProt P30542); experiment: Radioligand binding, human A1 AR, CHO membranes (Table 1); settings: for A1 % inhib.: species H (human), percent in parentheses, concentration not marked
# T5 sequence (P30542 1-326): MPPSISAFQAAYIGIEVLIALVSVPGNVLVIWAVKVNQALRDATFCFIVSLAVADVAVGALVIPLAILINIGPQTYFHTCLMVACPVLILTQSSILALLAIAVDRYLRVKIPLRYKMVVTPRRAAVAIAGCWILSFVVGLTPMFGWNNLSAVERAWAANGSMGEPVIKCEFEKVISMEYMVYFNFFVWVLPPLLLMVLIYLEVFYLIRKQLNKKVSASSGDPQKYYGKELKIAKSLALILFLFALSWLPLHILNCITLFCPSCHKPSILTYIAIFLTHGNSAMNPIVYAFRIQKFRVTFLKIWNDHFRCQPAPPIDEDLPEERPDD
# [8] = target: T6, human A3 adenosine receptor (Homo sapiens, UniProt P0DMS8); experiment: [125I]I-AB-MECA binding, human A3 AR, CHO membranes (Table 1); settings: for Ki: A3 Ki, species H (human)
# T6 sequence (P0DMS8 1-318): T4 sequence (P0DMS8 1-318)
# [9] = target: T7, mA1AR (Mus musculus, UniProt Q60612); experiment: Competition binding at mA1AR, HEK293 membranes (Example 8); settings: percent in parentheses, concentration not given
# T7 construct: expressed in transfected cells
# T7 sequence (Q60612 1-326): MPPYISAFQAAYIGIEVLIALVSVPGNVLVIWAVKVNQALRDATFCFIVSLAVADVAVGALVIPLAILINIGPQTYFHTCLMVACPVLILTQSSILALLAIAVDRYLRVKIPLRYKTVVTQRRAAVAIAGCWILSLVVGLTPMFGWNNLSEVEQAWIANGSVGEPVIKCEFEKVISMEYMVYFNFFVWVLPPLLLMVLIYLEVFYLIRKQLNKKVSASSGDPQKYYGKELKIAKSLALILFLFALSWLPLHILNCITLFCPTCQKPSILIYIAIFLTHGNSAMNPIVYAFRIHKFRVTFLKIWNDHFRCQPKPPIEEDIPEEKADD
# [10] = target: T8, hA1AR (Homo sapiens, UniProt P30542); experiment: Binding at hA1AR, CHO membranes (Example 7); settings: read-out: % inhibition hA1
# T8 construct: expressed in transfected cells; host or cells: CHO
# T8 sequence (P30542 1-326): T5 sequence (P30542 1-326)
# Procedure: (§1) CHO cells stably expressing the recombinant hA1, hA3, and rA3Rs, and HEK-293 cells stably expressing the hA2AAR were cultured in Dulbecco's modified Eagle medium (DMEM) and F12 (1:1) supplemented with 10% fetal bovine serum, 100 units/mL penicillin, 100 μg/mL streptomycin, and 2 μmol/mL glutamine. In addition, 800 μg/mL geneticin was added to the A2A media, while 500 μg/mL hygromycin was added to the A1 and A3 media. After harvesting, cells were homogenized and suspended in PBS. Cells were then centrifuged at 240 g for 5 min, and the pellet was resuspended in 50 mM Tris-HCl buffer (pH 7.5) containing 10 mM MgCl2. The suspension was homogenized and was then ultra-centrifuged at 14,330 g for 30 min at 4° C. […] The protein concentration was measured using the BCA Protein Assay Kit from Pierce Biotechnology, Inc. (Rockford, Ill.).
# (§2) Into each tube in the binding assay was added 50 μL of increasing concentrations of the test ligand in Tris-HCl buffer (50 mM, pH 7.5) containing 10 mM MgCl2, 50 μL of the appropriate agonist radioligand, and finally 100 μL of membrane suspension. […] For the A2AAR (20 μg/tube) the radioligand used was [^3H]53 (10 nM). […] Nonspecific binding was determined using a final concentration of 10 μM 51 diluted with the buffer. The mixtures were incubated at 25° C. for 60 min in a shaking water bath. Binding reactions were terminated by filtration through Brandel GF/B filters under a reduced pressure using a M-24 cell harvester (Brandel, Gaithersburg, Md.). Filters were washed three times with 3 mL of 50 mM ice-cold Tris-HCl buffer (pH 7.5). […] Filters for A3AR binding were counted using a Packard COBRA™ II γ-counter. The Ki values were determined using GraphPad Prism for all assays.
# [11] = target: T9, hA3AR (Homo sapiens, UniProt P0DMS8); experiment: Binding at hA3AR, CHO membranes (Example 7); settings: read-out: Affinity (Ki, nM) hA3
# T9 construct: expressed in transfected cells; host or cells: CHO
# T9 sequence (P0DMS8 1-318): T4 sequence (P0DMS8 1-318)
# Procedure: as §1, §2
# [12] = target: T10, mA3AR (Mus musculus, UniProt Q61618); experiment: Competition binding at mA3AR, HEK293 membranes (Example 8); settings: read-out: Affinity (Ki, nM) mA3
# T10 construct: expressed in transfected cells
# T10 sequence (Q61618 1-319): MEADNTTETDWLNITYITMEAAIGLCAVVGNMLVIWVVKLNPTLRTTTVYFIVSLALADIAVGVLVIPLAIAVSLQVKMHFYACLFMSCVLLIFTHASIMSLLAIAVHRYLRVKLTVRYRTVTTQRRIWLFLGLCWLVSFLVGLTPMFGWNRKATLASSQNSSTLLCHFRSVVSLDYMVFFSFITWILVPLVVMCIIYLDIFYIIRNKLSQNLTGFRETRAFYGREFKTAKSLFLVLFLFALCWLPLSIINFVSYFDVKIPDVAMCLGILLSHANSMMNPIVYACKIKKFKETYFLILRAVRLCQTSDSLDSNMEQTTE
# [13] = target: T1, hA2AAR; experiment: Binding at hA2AAR, HEK-293 membranes (Example 7); settings: read-out: % inhibition hA2A
# Procedure: After harvesting, cells were homogenized and suspended in PBS.
# Nonspecific binding was determined using a final concentration of 10 μM 51 diluted with the buffer.
# T1 sequence (P29274 whole entry): as the sequence (P29274 whole entry) above
Compound,Emax at 10 µM [6] [%],% inhibition mA1 [9],inhibition at 10 µM [10] [%],Ki [11] [nM],Ki [12] [nM],inhibition at 10 µM [13] [%],other results
"CCCC#Cc1nc(NCc2cccc(Cl)c2)c2ncn([C@@H]3[C@H](O)[C@H](O)[C@]4(C(=O)NC)C[C@H]34)c2n1 [Compound 5, (1′S,2′R,3′S,4′S,5′S)-4′-[6-(3-Chlorobenzylamino)-2-(1-pentynyl)-9-yl]-2′,3′-dihydroxybicyclo[3.1.0]hexane-1′-carboxylic acid N-methylamide]",–,–,–,–,–,–,"% inhibition hA2A [1]: (80%); A2A % inhib. ([2]; species M (mouse), percent inhibition at 100 μM): (42%)^i; A2A % inhib. ([3]; species H (human), percent inhibition at 10 μM): (80%)^f; % inhibition mA2A [4]: (42%)^1"
CNC(=O)C12CC1C(n1cnc3c(NCc4cccc(C#CCO)c4)nc(Cl)nc31)C(O)C2O (stereo not shown) [Compound 16],–,–,–,–,–,–,inhibition at 100 µM ([2]; read-out: A2A % inhib.): 11%; A2A % inhib. [5]: (56%)^f
CNC(=O)C12CC1C(n1cnc3c(NC4CCCC4)nc(Cl)nc31)C(O)C2O (stereo not shown) [Compound 32],101,–,–,–,–,–,Ki [3]: 3250 ± 300 nM; Ki [7]: 18.3 ± 6.3 nM
CNC(=O)C12CC1C(n1cnc3c(NCc4cccc(Cl)c4)nc(C#CCCC(=O)OC)nc31)C(O)C2O (stereo not shown) [Compound 35],74.4 ± 5.1,–,–,–,–,–,Ki [8]: 5.5 ± 0.3 nM; A1 % inhib. [7]: (19 ± 3%)
CNC(=O)C12CC1C(n1cnc3c(NCc4cccc(Cl)c4)nc(C#CCCCCC(=O)OC)nc31)C(O)C2O (stereo not shown) [Compound 36],90 ± 6.2,–,–,–,–,–,Ki [8]: 11.1 ± 2.3 nM; Ki [3]: 3540 ± 1370 nM; A1 % inhib. [7]: (21 ± 8%)
"CNC(=O)C12CC1C(n1cnc3c(NCc4cccc(Cl)c4)nc(C#CCCC(=O)NCCCCN)nc31)C(O)C2O (stereo not drawn) [Compound 40, (1′S, 2′R, 3′S, 4′S, 5′S)-4′-[6-(3-Chlorobenzylamino)-2-(4-(β-aminobutylaminocarbonyl)-1-butynyl)-9-yl]-2′,3′-dihydroxybicyclo[3.1.0]hexane-1′-carboxylic acid N-methylamide]",102 ± 13,–,–,–,–,–,Ki [8]: 2.1 ± 0.4 nM; Selectivity A1/A3 ([8]; human): up to 1900; Ki [3]: 766 ± 109 nM
"CNC(=O)C12CC1C(n1cnc3c(NCc4cccc(Cl)c4)nc(C#CCCC(=O)NCCNC(=O)CCCCCNC(=O)CCCCC4SCC5NC(=O)NC54)nc31)C(O)C2O (stereo not drawn) [Compound 43, (1′S,2′R,3′S,4′S,5′S)-4′-[6-(3-Chlorobenzylamino)-2-(N-biotinyl {5-aminopentanyl}(β-aminoethylaminocarbonyl)-1-butynyl)-9-yl]-2′,3′-dihydroxybicyclo[3.1.0]hexane-1′-carboxylic acid N-methylamide]",106 ± 17.7,–,–,–,–,–,Ki [8]: 57.7 ± 16.2 nM; A1 % inhib. [7]: (8 ± 4%)
"CNC(=O)[C@@]12C[C@@H]1[C@@H](n1cnc3c(NC)nc(C#Cc4ccc(F)cc4)nc31)[C@H](O)[C@@H]2O [Compound 313, (1S,2R,3S,4R,5S)-4-(2-((4-Fluorophenyl)ethynyl)-6-(methylamino)-9H-purin-9-yl)-2,3-dihydroxy-N-methylbicyclo[3.1.0]hexane-1-carboxamide]",–,(25%),27,0.53 ± 0.09,66,19,–
"CNC(=O)[C@@]12C[C@@H]1[C@@H](n1cnc3c(NC)nc(C#Cc4ccccc4Cl)nc31)[C@H](O)[C@@H]2O [Compound 314, (1S,2R,3S,4R,5S)-4-(2-((2-Chlorophenyl)ethynyl)-6-(methylamino)-9H-purin-9-yl)-2,3-dihydroxy-N-methylbicyclo[3.1.0]hexane-1-carboxamide]",–,(45%),22,0.58 ± 0.04,55,30,–
"CNC(=O)[C@@]12C[C@@H]1[C@@H](n1cnc3c(NCc4cccc(Cl)c4)nc(C#Cc4ccccc4)nc31)[C@H](O)[C@@H]2O [Compound 327, (1S,2R,3S,4R,5S)-4-(6-(3-Chlorobenzylamino)-2-(phenylethynyl)-9H-purin-9-yl)-2,3-dihydroxy-N-methylbicyclo[3.1.0]hexane-1-carboxamide]",–,(41%),18,–,16,27,–
"CNC(=O)[C@@]12C[C@@H]1[C@@H](n1cnc3c(NCc4cccc(Cl)c4)nc(C#Cc4ccc(F)cc4)nc31)[C@H](O)[C@@H]2O [Compound 328, (1S,2R,3S,4R,5S)-4-(6-(3-Chlorobenzylamino)-2-((4-fluorophenyl)ethynyl)-9H-purin-9-yl)-2,3-dihydroxy-N-methylbicyclo[3.1.0]hexane-1-carboxamide]",–,(39%),19,–,7.5,42,–
"CNC(=O)[C@@]12C[C@@H]1[C@@H](n1cnc3c(NCc4cccc(Cl)c4)nc(C#Cc4ccccc4Cl)nc31)[C@H](O)[C@@H]2O [Compound 329, (1S,2R,3S,4R,5S)-4-(6-(3-Chlorobenzylamino)-2-((2-chlorophenyl)ethynyl)-9H-purin-9-yl)-2,3-dihydroxy-N-methylbicyclo[3.1.0]hexane-1-carboxamide]",–,(36%),20,1.92 ± 0.57,7.5,52,–
"CNC(=O)[C@@]12C[C@@H]1[C@@H](n1cnc3c(NCc4cccc(Cl)c4)nc(C#Cc4ccc(N)cc4)nc31)[C@H](O)[C@@H]2O [Compound 332a, (1S,2R,3S,4R,5S)-4-(2-((4-Aminophenyl)ethynyl)-6-(3-chlorobenzylamino)-9H-purin-9-yl)-2,3-dihydroxy-N-methylbicyclo[3.1.0]hexane-1-carboxamide]",–,(93%),2,2.27 ± 0.7,17,44,–
"CNC(=O)[C@@]12C[C@@H]1[C@@H](n1cnc3c(NCc4cccc(Cl)c4)nc(C#Cc4ccc(-c5ccccc5)cc4)nc31)[C@H](O)[C@@H]2O [Compound 335, (1S,2R,3S,4R,5S)-4-(2-(Biphenyl-4-ylethynyl)-6-(3-chlorobenzylamino)-9H-purin-9-yl)-2,3-dihydroxy-N-methylbicyclo[3.1.0]hexane-1-carboxamide]",–,(28%),–,3.06 ± 1.35,22,0,–

# From patent US8916570B2 (The United States of America, as represented by the …, priority 2008, dated 2014)
